Structures can show the parent of a compound that is named as a salt. Where two headings read alike, the source gives them in different places.
Tests used:
MCC13 cells (VN-MCC) = test: qHTS cell viability (CellTiter-Glo, 72 h; primary and follow-up small molecule screen); format: cell-based, human
MCC26 cells (VN-MCC) = test: as above; format: cell-based, human
UISO cells (VN-MCC) = test: as above; format: cell-based, human
WAGA cells (VP-MCC) = test: as above; format: cell-based, human
MKL-1 cells (VP-MCC) = test: as above; format: cell-based, human
MKL-2 cells (VP-MCC) = test: as above; format: cell-based, human
HACAT cells = test: qHTS cell viability (CellTiter-Glo, 72 h; primary screen), control cell line; format: cell-based, human
HEK293T cells = test: as above; format: cell-based, human
NIH-3T3 cells = test: as above; format: cell-based, mouse
CRL-7250 cells = test: as above; format: cell-based
[1] = tested on: MCC cell lines (WAGA, MKL-1, MKL-2, MCC13, MCC26, UISO); test: qHTS cell viability, all six MCC cell lines as a group (mean AUC, MCC.avg); format: cell-based, human
[2] = tested on: VP-MCC cell lines (WAGA, MKL-1, MKL-2); test: qHTS cell viability, VP-MCC cell lines as a group (mean AUC, VP.MCC.avg); format: cell-based, human
[3] = tested on: VN-MCC cell lines (MCC13, MCC26, UISO); test: qHTS cell viability, VN-MCC cell lines as a group (mean AUC, VN.MCC.avg); format: cell-based, human
[4] = tested on: control cell lines (HACAT, HEK293T, CRL-7250, NIH-3T3); test: qHTS cell viability, control cell lines as a group (mean AUC, Control.avg); format: cell-based
[5] = tested on: six MCC cell lines and four control cell lines; test: qHTS cell viability, all 10 cell lines screened; format: cell-based
[6] = NPC library, qHTS dose-response AUC, MCC13
[7] = NPC library, qHTS dose-response AUC, MCC26
[8] = NPC library, qHTS dose-response AUC, UISO
[9] = NPC library, qHTS dose-response AUC, WAGA
[10] = NPC library, qHTS dose-response AUC, MKL1
[11] = NPC library, qHTS dose-response AUC, MKL2
[12] = NPC library, qHTS dose-response AUC, HACAT control
[13] = NPC library, qHTS dose-response AUC, HEK293T control
[14] = NPC library, qHTS dose-response AUC, NIH3T3 control
[15] = NPC library, qHTS dose-response AUC, CRL7250 control
[16] = NPC library, mean AUC of six MCC cell lines
[17] = NPC library, mean AUC of VP-MCC cell lines
[18] = NPC library, therapeutic window: Control avg AUC minus VP-MCC avg AUC
[19] = NPC library, mean AUC of VN-MCC cell lines
[20] = NPC library, therapeutic window: Control avg AUC minus VN-MCC avg AUC
[21] = NPC library, mean AUC of control cell lines
[22] = NPC library, therapeutic window: Control avg AUC minus MCC avg AUC
[23] = NPC library, 8-point DRC, area under dose-response curve
[24] = NPC library, 8-point DRC, control cell line

Structure (SMILES)	MCC13_AUC (MCC13 cells (VN-MCC); [6])	MCC26_AUC (MCC26 cells (VN-MCC); [7])	UISO_AUC (UISO cells (VN-MCC); [8])	WAGA_AUC (WAGA cells (VP-MCC); [9])	MKL1_AUC (MKL-1 cells (VP-MCC); [10])	MKL2_AUC (MKL-2 cells (VP-MCC); [11])	HACAT_AUC (HACAT cells; [12])	HEK293T_AUC (HEK293T cells; [13])	NIH3T3_AUC (NIH-3T3 cells; [14])	CRL7250_AUC (CRL-7250 cells; [15])	MCC_Avg_AUC [1, 16]	VP-MCC_Avg_AUC [2, 17]	Control-VP-MCC [2, 18]	VN-MCC_Avg_AUC [3, 19]	Control-VN-MCC [3, 20]	Control_Avg_AUC [4, 21]	Control-MCC [5, 22]	also measured
Cc1ccsc1C(=CCCN1CCC[C@@H](C(=O)O)C1)c1sccc1C [Tiagabine hydrochloride]	504.961	535.626	537.732	356.213	342.483	263.998	471.067	447.539	484.889	426.76	423.502	320.898	136.666	526.106	-68.5423	457.564	34.0617	
Oc1ccc(C2CNCCc3c2cc(O)c(O)c3Cl)cc1 (centres unmarked) [Fenoldopam]											444.271	447.83		440.711		491.543		MCC13_AUC (MCC13 cells (VN-MCC); [23]): 446.053; MCC26_AUC (MCC26 cells (VN-MCC); [23]): 437.226; UISO_AUC (UISO cells (VN-MCC); [23]): 438.854; WAGA_AUC (WAGA cells (VP-MCC); [23]): 438.933; MKL1_AUC (MKL-1 cells (VP-MCC); [23]): 451.807; MKL2_AUC (MKL-2 cells (VP-MCC); [23]): 452.751; HACAT_AUC (HACAT cells; [24]): 491.95; HEK293T_AUC (HEK293T cells; [24]): 492.113; NIH3T3_AUC (NIH-3T3 cells; [24]): 489.56; CRL7250_AUC (CRL-7250 cells; [24]): 492.55; Control-VP-MCC ([2]; NPC library, Control AUC minus VP-MCC AUC (therapeutic window)): 43.713; Control-VN-MCC ([3]; NPC library, Control AUC minus VN-MCC AUC (therapeutic window)): 50.8323; Control-MCC ([5]; NPC library, Control AUC minus MCC AUC (therapeutic window)): 47.2727
CCOC(=O)[C@H](CCc1ccccc1)N[C@@H](C)C(=O)N1CCC[C@H]1C(=O)O [Enalapril]	506.069	507.531	518.678	302.495	312.443	179.263	446.912	487.46	481.677	492.563	387.746	264.734	212.42	510.759	-33.606	477.153	89.4069	
C[C@H](CN1CCOCC1)C(C(=O)N1CCCC1)(c1ccccc1)c1ccccc1.O=C(O)C(O)C(O)C(=O)O [Dextromoramide tartrate]																		MCC13_AUC (MCC13 cells (VN-MCC)): 446.289; MCC26_AUC (MCC26 cells (VN-MCC)): 445.292; UISO_AUC (UISO cells (VN-MCC)): 445.259; WAGA_AUC (WAGA cells (VP-MCC)): 399.942; MKL1_AUC (MKL-1 cells (VP-MCC)): 389.502; MKL2_AUC (MKL-2 cells (VP-MCC)): 383.165; HACAT_AUC (HACAT cells): 472.266; HEK293T_AUC (HEK293T cells): 429.542; NIH3T3_AUC (NIH-3T3 cells): 477.478; CRL7250_AUC (CRL-7250 cells): 471.896; MCC_Avg_AUC [1]: 418.242; Control-VP-MCC [2]: 71.9259; VP-MCC_Avg_AUC [2]: 390.87; Control-VN-MCC [3]: 17.1819; VN-MCC_Avg_AUC [3]: 445.614; Control_Avg_AUC [4]: 462.795; Control-MCC [5]: 44.5539

Reference: PMC11822212, “High-throughput screening identifies Aurora kinase B as a critical therapeutic target for Merkel cell carcinoma” (Nature Communications, 2025)
